Laboratory results from patent US6593144B2, “Magnetic resonance imaging using hyperpolarized noble gases” (The Trustees of Princeton University, priority 1994, dated 2003).
Several values for one entry are separate records, joined by “and”; a condition that tells them apart may be missing. Equal entries are not always repeated. Where two headings read alike, the source gives them in different places. Blank lines part the entries; values can stand above or below the compound they belong to.

Key:
[1] = cited from earlier work
[2] = Relaxivity of O2 toward 129Xe and T1 estimates derived from it; format: physicochemical; conditions: for T1: absence of other relaxers
Text: It is known that ^129Xe, which has a long longitudinal relaxation time in the gas phase, can be relaxed by magnetic dipole-dipole interaction and/or Fermi-Contact interaction with the unpaired electron spins of dioxygen. (Reference 18). The solubility of Xenon (and also of dioxygen) in water is low. Due to the low sensitivity of the ^129Xe signal, the time required for determining the relaxivity of O2 toward ^129Xe with a series of T1 determinations over a range of O2 concentrations in water would be prohibitively long.
The relaxivity of O2 toward ^129Xe has been measured in only one liquid, i.e., octanol, which models an amphipathic membrane lipid. (Reference 17). The observed relaxivity, 0.029 s^−1mM^−1, is about three times larger than that estimated from previous reports for gas-phase relaxation, i.e., (Reference 18), 0.0087 s^−1mM^−1, as might be expected for encounters in the condensed phase. The dioxygen relaxivity for ^129Xe is constant over the concentration range studied, and thus 1/T1 will be a linear function of O2 concentration over the entire physiological range (0-0.2 atm, 0-0.2 mM). This translates into a T1 value of 18 s in air-saturated lipid, and 80 s in anaerobic lipid, in the absence of other relaxers. This is the first reported value for the O2 relaxivity toward ^129Xe in a condensed phase. T2values over these O2 concentrations have been determined to range from 0.5 to 5.0 s. […] In fact, given the relative inefficiency of the known non-paramagnetic relaxation mechanisms, it is suspected that T1 in many tissues will not fall below seconds or even tens of seconds.
This estimate of T1≈38 s for ^129Xe dissolved in rat blood at 293° K is very encouraging. […] One can also estimate T1 values for other model systems. The T1 of ^129Xe in water has been measured at 300° K to be 130 s. […] While the actual values of T1 in each tissue must be, and remain to be, determined, it is expected that the minimum value will fall above 15 s, a duration sufficient to enable significant accumulation of polarized ^129Xe in major tissues. […]

[3] = cited from earlier work; remark: listed apart in the source
[4] = dissolved in rat blood, 293° K, data obtained over 12 hr; cited from earlier work
[5] = 30° C., 0.5 atm, cited from earlier work
[6] = inhaled, mouse; cited from earlier work
[7] = inhaled, humans; cited from earlier work
[8] = brain, cited from earlier work
[9] = cited from earlier work; remark: listed apart in the source
[10] = myoglobin (aqueous Fe(III) metmyoglobin)

T1 ([2]; air-saturated lipid): 18 s
T1 ([2]; anaerobic lipid): 80 s
estimated T1 ([2]; fully oxygenated membranes): > 15 s
Compound: [129Xe] [^129Xe, Xenon-129]
T2 ([1]; octanol, over O2 concentrations 0-0.2 atm): 0.5 to 5.0 s
T1 ([3]; 10% Fe(III) metMb): 0.005 s
T1 ([3]; benzene, 9.4 T and 300° K, Diehl and Jokisaari): 155.0 ± 6.2 s
T1 ([3]; benzene, 300° K): 160 s and 160.5 s
T1 ([3]; benzene, Moschos and Reisse): 240 s
T2 ([3]; benzene): 0.88 s
T1 [3, 10]: 0.0052 s
T2 [3, 10]: 0.00057 s
T1 ([3]; octanol): 80 s and 78.5 s
T2 ([3]; octanol): 5.3 s
T2 ([3]; pure gas phase, 1 atm): ≦56 hrs
T1 ([3]; pure gas phase, practically): at least 3000 s
T1 ([3]; water): 130 s and 131.3 s
T2 ([3]; water): 5.3 s
T1 [4]: 38 s and ≈ 38 s

Compound: O=O [O2, dioxygen]
relaxivity of O2 toward 129Xe ([1]; gas phase, estimated from previous reports): 0.0087 s⁻¹ mM⁻¹
relaxivity of O2 toward 129Xe ([1]; octanol, 300° K): 0.029 s⁻¹ mM⁻¹

Compound: [Xe] [Xenon]
solubility of Xenon in octanol ([5]; octanol): 48 mM
solubility of Xenon in water ([5]; water): 2.4 mM
time to reach a steady state with the entire blood volume (one blood circuit) [6]: about 1 s
time to reach a steady state with the entire blood volume (one blood circuit) [7]: about 18 s
steady-state concentration bound to proteins ([8]; 0.5-1.0 atm lung Xenon): 1 to 5 mM
steady-state concentration in the membrane bilayers ([8]; 0.5-1.0 atm lung Xenon): 5 to 10 mM
steady-state concentration in water ([8]; 0.5-1.0 atm lung Xenon): 2 to 4 mM
solubility in white matter versus gray matter [8]: approximately twice as soluble in white matter as in gray matter
metabolism ([9]; by the body): not metabolized by the body
period of recovery from the exhaled breath ([9]; human subjects): ~20 min
